Measured values taken from PMC3630508 (Molecular immunology, 2012).

Tests used:
complement activation = type: in vivo; details: 20 mg E23A intra-peritoneal, male Wistar rats, one hour
[1] = aqueous solubility; qualitative, data not shown

| Structure (SMILES) | adverse effects / overt toxicity upon necropsy (complement activation) | solubility [1] |
| --- | --- | --- |
| CC[C@H](C)[C@H](NC(=O)[C@H](C)NC(=O)[C@@H]1CCCN1)C(=O)N[C@@H](CS)C(=O)N[C@@H](CCC(N)=O)C(=O)N[C@@H](CCCNC(=N)N)C(=O)N[C@@H](C)C(=O)N[C@H](C(=O)N[C@@H](C)C(=O)N[C@H](C(=O)N[C@@H](CC(C)C)C(=O)NCC(=O)N[C@H](C(=O)N[C@H](C(=O)NCC(=O)N[C@@H](CO)C(=O)N[C@@H](CC(N)=O)C(=O)N[C@H](C(=O)N[C@@H](CO)C(=O)NCC(=O)N[C@H](C(=O)N[C@H](C(=O)N[C@@H](CCC(=O)O)C(=O)N[C@H](C(=O)N[C@@H](C)C(=O)N[C@@H](C)C(=O)N[C@@H](CS)C(=O)N[C@H](C(=O)N[C@@H](CC(C)C)C(=O)N[C@@H](CC(C)C)C(=O)O)[C@@H](C)CC)[C@@H](C)CC)[C@@H](C)O)[C@@H](C)O)[C@@H](C)O)C(C)C)[C@@H](C)O)[C@@H](C)O)[C@@H](C)O [E23A] | no overt adverse effects | relative insolubility |
| CC[C@H](C)[C@H](N)C(=O)N[C@@H](C)C(=O)N[C@@H](CC(C)C)C(=O)N[C@H](C(=O)N[C@@H](CC(C)C)C(=O)N[C@@H](CCC(=O)O)C(=O)N1CCC[C@H]1C(=O)N[C@H](C(=O)N[C@@H](CS)C(=O)N[C@@H](CS)C(=O)N[C@@H](CCC(N)=O)C(=O)N[C@@H](CCC(=O)O)C(=O)N[C@@H](CCCNC(=N)N)C(=O)N[C@@H](C)C(=O)N[C@@H](C)C(=O)O)[C@@H](C)CC)[C@@H](C)CC [PA] | – | aqueous solubility of the compound was significantly improved |
